One test has as its system T. brucei BSF cells (WT). Kind of test: Alamar blue cell viability assay, wild type.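 As to all read-outs here: trypanosomes seeded at 5×10^3 per ml and grown 72 h with compound, then resazurin 0.5 mM added for 4 h as the viability read-out.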 The note with it: for IC50: 72 h, read-out: IC50 growth WT; for EC50: wild type cells.
In test [1] the target is T. brucei PKAR-PKAC1 holoenzyme (Trypanosoma brucei, UniProt Q9GU80). In words: biochemical. The class given is biochemical. The settings on record: for In vitro kinase assay: technical replicates.
Another test concerns the target T. brucei PKA (Trypanosoma brucei brucei, UniProt Q9GU80). Kind of test: In vivo PKA reporter assay (VASP Ser-157 phosphorylation, western blot).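 As to % VASP phosphorylation: Phosphorylated VASP as percent of total VASP band signal.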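 As to all read-outs here: T. brucei cells expressing human VASP as heterologous PKA substrate, compound exposure at 37 °C, western blot of phospho (50 kDa) versus unphosphorylated (46 kDa) VASP band.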 The class given is cell-based. The note with it: for EC50: read-out: EC50 in vivo PKA assay, VASP reporter, 15 min treatment, mean ± SD; for % VASP phosphorylation: independent replicates; for effect on in vivo PKA activity (VASP phosphorylation), in words: wild type background.

Test [2] deals with T. brucei ∆pkar/∆pkar (pkar KO) cells. In words: microbe, parasite or virus in culture. It is filed as cell-based, Trypanosoma brucei.
The test system of test [3] is T. brucei PKA holoenzyme (Ty1-PKAC1). It is filed as biochemical, Trypanosoma brucei. The note with it: for effect on basal kinase activity of immunoprecipitated holoenzyme, in words / in vitro kinase assay [CPM], average / in vitro kinase assay [CPM]: 1 mM; for in vitro kinase assay [CPM], PKI: 1 mM + 5 µM PKI(5-24); for in vitro kinase assay [CPM], PKI / in vitro kinase assay [CPM], average / in vitro kinase assay [CPM]: Supp Fig 3c; for in vitro kinase assay [CPM], average: average of 3; for in vitro kinase assay [CPM]: independent replicates.

Setting [4] is: Trypanosoma brucei, 72 h, read-out: IC50 growth pkar KO.
The mark [5] stands for this setting: read-out: EC50, Alamar blue cell viability assay, WT, individual replicate results.
Where [6] appears, read: read-out: EC50, Alamar blue cell viability assay, KO; individual replicate results; pkar KO cells.

Values joined by “and” are separate entries in the source; they are usually repeats but may differ in a detail not shown here. Identical values can stand only once. Like-named read-outs stand apart in the source and are kept apart here. Ends that are not written are not given here. * marks the point of attachment. Myristoyl = CCCCCCCCCCCCCC(=O)*

Sequence of T. brucei PKA (Q38DS1 entry or part of it): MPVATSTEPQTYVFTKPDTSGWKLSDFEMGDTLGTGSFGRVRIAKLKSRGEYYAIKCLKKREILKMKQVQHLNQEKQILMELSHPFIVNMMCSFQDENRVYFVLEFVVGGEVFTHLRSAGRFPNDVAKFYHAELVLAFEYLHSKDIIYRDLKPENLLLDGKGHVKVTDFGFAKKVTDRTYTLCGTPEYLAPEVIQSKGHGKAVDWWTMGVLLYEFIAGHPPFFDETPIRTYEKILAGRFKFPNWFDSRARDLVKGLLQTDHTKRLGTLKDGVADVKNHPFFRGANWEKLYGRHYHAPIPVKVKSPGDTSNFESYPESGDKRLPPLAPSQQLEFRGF
Sequence of T. brucei PKA (Q38DR5 entry or part of it, further chain): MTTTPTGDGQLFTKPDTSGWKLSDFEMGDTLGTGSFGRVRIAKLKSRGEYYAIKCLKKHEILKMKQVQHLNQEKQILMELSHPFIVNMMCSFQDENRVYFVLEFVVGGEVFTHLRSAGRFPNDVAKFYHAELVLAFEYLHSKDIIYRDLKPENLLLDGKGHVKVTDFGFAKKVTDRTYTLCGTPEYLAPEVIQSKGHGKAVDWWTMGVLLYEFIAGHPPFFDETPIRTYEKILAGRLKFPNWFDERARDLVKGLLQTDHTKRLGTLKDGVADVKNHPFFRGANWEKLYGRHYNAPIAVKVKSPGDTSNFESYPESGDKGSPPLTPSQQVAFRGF
Sequence of T. brucei PKA (Q9GU80 entry or part of it): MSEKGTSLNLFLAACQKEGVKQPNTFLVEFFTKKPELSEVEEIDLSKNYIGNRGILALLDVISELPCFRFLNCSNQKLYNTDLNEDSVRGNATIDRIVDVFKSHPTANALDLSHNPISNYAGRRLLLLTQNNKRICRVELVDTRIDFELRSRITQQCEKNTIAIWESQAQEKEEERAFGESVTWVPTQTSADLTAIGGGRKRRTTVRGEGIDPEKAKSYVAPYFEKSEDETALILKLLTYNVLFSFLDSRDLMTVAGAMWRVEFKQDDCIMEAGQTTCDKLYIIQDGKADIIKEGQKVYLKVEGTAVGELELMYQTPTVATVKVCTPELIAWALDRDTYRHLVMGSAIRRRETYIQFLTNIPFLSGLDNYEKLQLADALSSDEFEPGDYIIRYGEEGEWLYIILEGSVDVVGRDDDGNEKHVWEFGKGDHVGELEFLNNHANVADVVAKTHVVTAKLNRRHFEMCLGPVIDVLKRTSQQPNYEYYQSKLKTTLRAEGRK
Sequence of T. brucei PKAR-PKAC1 holoenzyme (Q38DR5 entry or part of it): as the sequence (Q38DR5 entry or part of it, further chain) above
Sequence of T. brucei PKAR-PKAC1 holoenzyme (Q9GU80 entry or part of it): as the sequence (Q9GU80 entry or part of it) above

Regarding `Nc1ncnc2c1c(Br)cn2[C@@H]1O[C@H](CO)[C@@H](O)[C@H]1O` [5-Br-Tu, 7-Bromo-7-deazaadenosine], the IC50 in the test on T. brucei BSF cells (WT) (Trypanosoma brucei) amounted to 874 ± 122 nM; in test [2] (setting [4]), 1010 ± 95 nM. For the same compound, the EC50 in test [1] came to 1700 ± 1400 nM; at T. brucei PKA, 625 ± 66 nM. Further, the “In vitro kinase assay” value is 0.15 U/ml and 0.17 U/ml in test [1] (0.049 µM); 0.25 U/ml and 0.22 U/ml in test [1] (0.098 µM); 0.27 U/ml and 0.24 U/ml in test [1] (0.195 µM); 0.37 U/ml and 0.39 U/ml in test [1] (0.391 µM); 0.53 U/ml and 0.48 U/ml in test [1] (0.781 µM); 0.72 U/ml and 0.59 U/ml in test [1] (1.563 µM). The “In vitro kinase assay” value in test [1] (3.125 µM) is 0.85 U/ml and 0.72 U/ml; in test [1] (6.25 µM) it was 0.89 U/ml and 1.03 U/ml; in test [1] (12.5 µM), 1.09 U/ml and 1.13 U/ml; in test [1] (25 µM), 1.41 U/ml and 1.21 U/ml; in test [1] (50 µM) it was 1.29 U/ml and 1.22 U/ml.

Take `Nc1ncnc2c1c(Br)cn2[C@@H]1O[C@H](CO)[C@@H](O)[C@H]1O` [5BrTu]: the EC50 was 615 nM and 1550 nM and 1120 nM and 583 nM and 1080 nM and 749 nM and 605 nM and 692 nM with T. brucei BSF cells (WT) (setting [5]); 680 nM and 1190 nM and 1260 nM and 1090 nM and 619 nM and 797 nM and 1170 nM in test [2] (setting [6]).

Take `Nc1ncnc2c1c(I)cn2[C@@H]1O[C@H](CO)[C@@H](O)[C@H]1O` [5ITu]: the EC50 was 134 nM and 378 nM and 467 nM and 417 nM and 291 nM and 390 nM and 317 nM and 247 nM in the test on T. brucei BSF cells (WT) (setting [5]); 365 nM and 366 nM and 542 nM and 168 nM and 345 nM and 276 nM and 265 nM and 448 nM in test [2] (setting [6]).

Regarding `Nc1ncnc2c1nc(Sc1ccc(Cl)cc1)n2[C@@H]1O[C@@H]2COP(=O)([O-])O[C@H]2[C@H]1O.[Na+]` [8-pCPT-cAMP, 8-(4-Chlorophenylthio)adenosine-3',5'-cyclic monophosphate], the “% VASP phosphorylation” value at T. brucei PKA (10 µM) was 24.5763% and 23.1009% and 28.0286%; at T. brucei PKA (50 µM) it was 16.5457% and 18.6378% and 24.8744%; at T. brucei PKA (100 µM), 10.9425% and 13.8058% and 25.7149%; on T. brucei PKA (250 µM), 9.807% and 10.2688% and 23.6208%; on T. brucei PKA (1000 µM), 10.7438% and 15.1961% and 19.6401%. Further, the “effect on in vivo PKA activity (VASP phosphorylation), in words” value (“effect on in vivo PKA activity” below) at T. brucei PKA is “No PKA activation”.

Turning to `Nc1nc2c(nc(Sc3ccc(Cl)cc3)n2[C@@H]2O[C@@H]3COP(=O)(O)O[C@H]3[C@H]2O)c(=O)[nH]1` [8-pCPT-cGMP, 8-(4-Chlorophenylthio)guanosine-3',5'-cyclic monophosphate], the “% VASP phosphorylation” value on T. brucei PKA (10 µM) was 25.8142% and 29.2369% and 19.6808%; on T. brucei PKA (50 µM), 27.9869% and 31.8421% and 17.4767%; at T. brucei PKA (100 µM) it was 30.4284% and 21.992% and 28.117%; on T. brucei PKA (250 µM), 30.7048% and 20.4067% and 21.3305%; on T. brucei PKA (1000 µM) it was 32.0969% and 20.8683% and 24.288%.

Regarding `OCCN(CCO)c1nc(N2CCCCC2)c2nc(N(CCO)CCO)nc(N3CCCCC3)c2n1` [Dipy], the EC50 was 12100 nM and 6380 nM and 10700 nM and 10600 nM and 10900 nM and 16800 nM and 6540 nM and 7480 nM and 7070 nM and 13400 nM and 7420 nM with T. brucei BSF cells (WT) (setting [5]); 12400 nM and 21900 nM and 24900 nM and 25200 nM and 9930 nM and 13600 nM and 21100 nM and 14900 nM and 8890 nM and 13300 nM and 13100 nM in test [2] (individual replicate results; pkar KO cells; read-out: EC50, Alamar blue cell viability assay, KO).

In the case of `OCCN(CCO)c1nc(N2CCCCC2)c2nc(N(CCO)CCO)nc(N3CCCCC3)c2n1` [Dipyridamol], the “In vitro kinase assay” value in test [1] (1 µM) is 0.38 U/ml and 0.36 U/ml; in test [1] (100 µM) it was 0.31 U/ml and 0.36 U/ml; in test [1] (1 mM) it was 0.38 U/ml and 0.41 U/ml.

With `NC(=O)c1cn([C@@H]2O[C@H](CO)[C@@H](O)[C@H]2O)c2ncnc(N)c12` [Sangi], the EC50 in the test on T. brucei BSF cells (WT) (Trypanosoma brucei, read-out: EC50, Alamar blue cell viability assay, WT, individual replicate results) was 697 nM; in the test with T. brucei BSF cells (WT) (setting [5]) it was 895 nM and 530 nM and 730 nM and 713 nM and 726 nM and 707 nM; in test [2] (setting [6]), 1570 nM and 868 nM and 2200 nM and 1910 nM and 1630 nM and 1940 nM and 1360 nM and 902 nM.

As to `NC(=O)c1cn([C@@H]2O[C@H](CO)[C@@H](O)[C@H]2O)c2ncnc(N)c12` [Sangivamycin, 7-Carboxamido-7-deazaadenosine], the IC50 in the test on T. brucei BSF cells (WT) (Trypanosoma brucei) was 713 ± 40 nM; in test [2] (setting [4]) it was 1550 ± 171 nM. Moreover, the EC50 was found to be 10800 nM in test [1], 39300 ± 5600 nM on T. brucei PKA and 39000 nM on T. brucei PKA (listed as sangivamycin). In addition, the “In vitro kinase assay” value in test [1] (0.049 µM) is 0.15 U/ml and 0.17 U/ml; in test [1] (0.098 µM), 0.15 U/ml; in test [1] (0.195 µM) it was 0.19 U/ml and 0.18 U/ml; in test [1] (0.391 µM), 0.2 U/ml and 0.15 U/ml; in test [1] (0.781 µM), 0.17 U/ml; in test [1] (1.563 µM) it was 0.2 U/ml and 0.16 U/ml. Also, the “In vitro kinase assay” value was 0.22 U/ml and 0.24 U/ml in test [1] (3.125 µM); 0.29 U/ml and 0.28 U/ml in test [1] (6.25 µM); 0.33 U/ml and 0.31 U/ml in test [1] (12.5 µM); 0.44 U/ml and 0.4 U/ml in test [1] (25 µM); 0.44 U/ml in test [1] (50 µM).

`Nc1ncnc2c1ccn2[C@@H]1O[C@H](CO)[C@@H](O)[C@H]1O` [Tubercidin, 7-Deazaadenosine] yielded an EC50 in test [1] of 5000 ± 500 nM. Besides, the “In vitro kinase assay” value in test [1] (0.1 µM) is 0.31 U/ml and 0.36 U/ml; in test [1] (0.78 µM) it was 0.36 U/ml and 0.39 U/ml; in test [1] (1.56 µM) it was 0.39 U/ml and 0.42 U/ml; in test [1] (3.13 µM), 0.51 U/ml and 0.54 U/ml; in test [1] (6.25 µM), 0.7 U/ml and 0.67 U/ml; in test [1] (12.5 µM), 0.84 U/ml and 0.75 U/ml. Besides, the “In vitro kinase assay” value in test [1] (25 µM) is 0.84 U/ml and 0.93 U/ml; in test [1] (50 µM), 0.89 U/ml and 0.85 U/ml. Also, the “effect on in vivo PKA activity” value at T. brucei PKA is given as “No effect”.

Regarding `CC(=O)OCOP1(=O)OC[C@H]2O[C@@H](n3cnc4c(N)ncnc43)[C@H](O)[C@@H]2O1` (some centres unmarked) [cAMP-AM, Adenosine-3',5'-monophosphate, acetoxymethyl ester], the “% VASP phosphorylation” value was 36.276% and 37.2% and 34.8195% on T. brucei PKA (10 µM); 33.4307% and 32.7356% and 35.3637% at T. brucei PKA (20 µM); 35.9017% and 33.7363% and 34.7458% on T. brucei PKA (50 µM); 35.4076% and 39.0007% and 33.2483% at T. brucei PKA (100 µM); 44.3984% and 35.5186% and 38.5924% at T. brucei PKA (200 µM). The “effect on in vivo PKA activity” value on T. brucei PKA is “No PKA activation”.

As for `CC(=O)OCOP1(=O)OC[C@H]2O[C@@H](n3cnc4c(=O)[nH]c(N)nc43)[C@H](O)[C@@H]2O1` (some centres unmarked) [cGMP-AM, Guanosine-3',5'-cyclic monophosphate, acetoxymethyl ester], the “% VASP phosphorylation” value at T. brucei PKA (10 µM) is 34.8925% and 34.7802% and 32.2694%; at T. brucei PKA (20 µM) it was 44.672% and 38.9969% and 29.3979%; at T. brucei PKA (50 µM), 40.2424% and 33.9184% and 40.637%; on T. brucei PKA (100 µM) it was 34.6686% and 36.9156% and 43.827%; at T. brucei PKA (200 µM), 34.2202% and 37.453% and 36.5899%.

Consider `O=c1[nH]cnc2c1ncn2[C@@H]1O[C@@H]2COP(=O)(O)O[C@H]2[C@H]1O` [cIMP, inosine-3’,5’-cyclic monophosphate], for which, in test [3], the “effect on basal kinase activity of immunoprecipitated holoenzyme, in words” value (from here on “effect on basal kinase activity”) is on record as “did not show any significant effects”; the “in vitro kinase assay [CPM], PKI” value came to 620.6 CPM; the “in vitro kinase assay [CPM], average” value amounted to 7285.53 CPM; the “in vitro kinase assay [CPM]” value was 5568.4 CPM and 8615.56 CPM and 7672.63 CPM.

Turning to `O=c1ccn([C@@H]2O[C@@H]3COP(=O)(O)O[C@H]3[C@H]2O)c(=O)[nH]1` [cUMP, uridine -3’,5’-cyclic monophosphate], in test [3], the “effect on basal kinase activity” value is given as “did not show any significant effects”; the “in vitro kinase assay [CPM], PKI” value amounted to 572.53 CPM; the “in vitro kinase assay [CPM], average” value stood at 5670.69 CPM; the “in vitro kinase assay [CPM]” value was 4751.21 CPM and 5966.27 CPM and 6294.58 CPM.

On to `O=c1[nH]c(=O)c2ncn(C3OC4COP(=O)(O)OC4C3O)c2[nH]1` (centres unmarked) [cXMP, xanthosine-3’,5’-cyclic monophosphate], for which, in test [3], the “effect on basal kinase activity” value was “did not show any significant effects”; the “in vitro kinase assay [CPM], PKI” value turned out to be 870.13 CPM; the “in vitro kinase assay [CPM], average” value turned out to be 6246.71 CPM; the “in vitro kinase assay [CPM]” value was 4909.43 CPM and 6708.76 CPM and 7121.93 CPM.

As to “myr-PKI(14–22): myristoylated membrane-permeable peptide inhibitor of PKA (Myristoyl-SGRTGRRNA; UniProt P61925 14-22, looked up, fragment)”, in the test with T. brucei PKA (depending on the inhibitor batch), the “VASP phosphorylation upon treatment with inhibitor alone” value is recorded as 3-10%. In addition, the “effect on in vivo PKA activity” value with T. brucei PKA is reported as “reduced the measured activity to background”.

Values taken from PMC6440977, “Nucleoside analogue activators of cyclic AMP-independent protein kinase A of Trypanosoma” (Nature Communications, 2019).
